For 20 compounds, IC50 results are on record in US11814364B2, “Pyridine N-oxide derivatives useful as factor XIa inhibitors” (Janssen Pharmaceutica NV, priority 2021, dated 2023).

This experiment concerns the target human plasma kallikrein (Homo sapiens, UniProt P03952). The experiment in a line: Kallikrein inhibition FLINT assay with quenched AMC peptide substrate Z-Gly-Pro-Arg-AMC (end point EP or kinetic KIN reads). It counts as biochemical. The conditions noted are these: kinetic reads at 5 min intervals over 30 min; read-out: Kallikrein (KIN) IC50. The method in brief:
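Enzyme and compound were preincubated 30 min before adding 50 μM AMC substrate in pH 7.5 Tris/NaCl/CaCl2/BSA/CHAPS buffer. AMC release was read at 30 min endpoint or every 5 min.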

Chain of human plasma kallikrein (P03952 391-638 limits assumed): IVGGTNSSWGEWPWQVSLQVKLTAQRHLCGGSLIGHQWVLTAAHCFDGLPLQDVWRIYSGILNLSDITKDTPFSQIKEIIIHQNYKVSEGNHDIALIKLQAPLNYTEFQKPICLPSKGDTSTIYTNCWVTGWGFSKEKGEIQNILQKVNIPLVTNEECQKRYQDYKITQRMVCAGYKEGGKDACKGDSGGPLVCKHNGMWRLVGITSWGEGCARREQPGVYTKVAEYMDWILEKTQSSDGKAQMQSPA
Chain of human plasma kallikrein (P03952 20-390 partner limits assumed): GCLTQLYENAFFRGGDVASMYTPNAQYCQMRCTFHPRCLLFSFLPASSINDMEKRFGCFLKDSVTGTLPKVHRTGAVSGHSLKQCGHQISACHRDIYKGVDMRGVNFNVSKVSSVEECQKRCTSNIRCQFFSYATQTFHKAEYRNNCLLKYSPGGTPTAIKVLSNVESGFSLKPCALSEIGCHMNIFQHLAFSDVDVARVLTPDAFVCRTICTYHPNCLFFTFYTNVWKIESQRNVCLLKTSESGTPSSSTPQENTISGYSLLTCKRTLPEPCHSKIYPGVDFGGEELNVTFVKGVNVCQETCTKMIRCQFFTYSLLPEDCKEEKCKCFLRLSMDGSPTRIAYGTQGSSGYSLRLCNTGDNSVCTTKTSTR

On to `Cc1cc(-c2cnn(C(Cn3cc(F)cn3)c3ccc(-c4c(-n5cnnn5)ccc(Cl)c4F)c[n+]3[O-])c2)cc(C)[n+]1[O-]` (centres unmarked) [Example P477], for which the IC50 came to 188 nM. Under `O=C(O)c1ccc(-c2cnn(C(Cc3ccn(C(F)F)n3)c3ccc(-c4c(-n5cc(C(F)(F)F)nn5)ccc(Cl)c4F)c[n+]3[O-])c2)cc1F` (single isomer, unassigned) [Example P931] stands 2.5 nM; under `[O-][n+]1cc(-c2c(-n3cnnn3)ccc(Cl)c2F)ccc1[C@@H](CCOC(F)F)n1cc(-c2c(F)cncc2Cl)cn1` [Example P583], 1.5 nM; under `[O-][n+]1cc(-c2c(-n3cnnn3)ccc(Cl)c2F)ccc1C(CC1CC1)n1cc(-c2ccncn2)cn1` (single isomer, unassigned) [Example P258], 201 nM. Consider `COC(=O)N(C)CC(c1ccc(-c2c(-n3cnnn3)ccc(Cl)c2F)c[n+]1[O-])n1cc(-c2ccnc(F)c2)cn1` (single isomer, unassigned) [Example P356], for which the IC50 came out at 30.7 nM. In the case of `NC(=O)C1CC1CC(c1ccc(-c2c(-n3cnnn3)ccc(Cl)c2F)c[n+]1[O-])n1cc(-c2ccc(N)nc2F)cn1` (single isomer, unassigned) [Example P337], the IC50 turned out to be 556 nM. Under `CN(CC(c1ccc(-c2c(-n3cnnn3)ccc(Cl)c2F)c[n+]1[O-])n1cc(-c2ccncc2)cn1)C(=O)Cc1ccccc1` (centres unmarked) [Example P299] stands 24.9 nM.

`CCOC(=O)C1CC1CC(c1ccc(-c2cc(Cl)ccc2-n2cnnn2)c[n+]1[O-])n1cc(-c2ccc(C(=O)O)cc2)cn1` (centres unmarked) [Example P68]: the IC50 is 513 nM. Under `CC1CC1C[C@H](c1ccc(-c2c(-n3cnnn3)ccc(Cl)c2F)c[n+]1[O-])n1cc(-c2c(F)nnn2C)cn1` (some centres unmarked) [Example P768] stands 70.5 nM; under `[2H]C([2H])(C[C@@H](c1ccc(-c2c(-n3cnnn3)ccc(Cl)c2F)c[n+]1[O-])n1cc(-c2cn(C)nc2Cl)cn1)OC(F)F` [Example P849], 417 nM.

With `Cc1cc(-c2cnn(C(Cn3cccn3)c3ccc(-c4c(-n5cnnn5)ccc(Cl)c4F)c[n+]3[O-])c2)ccn1` (centres unmarked) [Example P285], the concentration for half-maximal inhibition (IC50) was determined as 16.2 nM. Under `COC(=O)N(C)CC(c1ccc(-c2c(-n3cnnn3)ccc(Cl)c2F)c[n+]1[O-])n1cc(-c2ccnc(F)c2)cn1` (single isomer, unassigned) [Example P355] stands 933 nM. In the case of `NC(=O)c1ccc(-c2cnn(C(Cc3ccn(C(F)F)n3)c3ccc(-c4c(C(F)F)ccc(Cl)c4F)c[n+]3[O-])c2)cc1F` (single isomer, unassigned) [Example Q66], the IC50 was found to be 477 nM. Under `COc1cc(C(CC2CC2)n2cc(-c3c(F)nnn3C)cn2)[n+]([O-])cc1-c1cc(Cl)ccc1C#N` (single isomer, unassigned) [Example Q62] stands 80.9 nM. Regarding `NC(=O)c1ccc(-c2cnn(C(CC3CC3)c3ccc(-c4c(-n5cnnn5)ccc(Cl)c4F)c[n+]3[O-])c2)cc1F` (single isomer, unassigned) [Example P946], the IC50 worked out at 834 nM.

As to `O=C(NC1CC1)c1ccc(-c2cnn(C(Cc3ccc(F)cc3)c3ccc(-c4cc(Cl)ccc4-n4cnnn4)c[n+]3[O-])c2)cc1` (centres unmarked) [Example P55], the IC50 is 5.4 nM.

Consider `Nc1ccc(-c2cnn(C(CCOC(F)F)c3ccc(-c4c(-n5cnnn5)ccc(Cl)c4F)c[n+]3[O-])c2)c(F)n1` (single isomer, unassigned) [Example P297], for which the IC50 was 2.2 nM. Under `NC(=O)c1ccc(-c2cnn(C(CC3CC3)c3ccc(-c4c(-n5cc(C(F)(F)F)nn5)ccc(Cl)c4F)c[n+]3[O-])c2)cc1F` (single isomer, unassigned) [Example P889] stands 77.8 nM. Take `CCOc1cc(C(CC2CC2)n2cc(-c3cnn(C)c(=O)c3)cn2)[n+]([O-])cc1-c1c(-n2cnnn2)ccc(Cl)c1F` (centres unmarked) [Example P137]: the IC50 came to 151 nM. Under `COC(=O)Nc1ccc(-c2cnn(C(CC(C)C)c3ccc(-c4c(-n5cnnn5)ccc(Cl)c4F)c[n+]3[O-])c2)cc1` (single isomer, unassigned) [Example P181] stands 67.7 nM.

For orientation: IC50 means the concentration that inhibits the measured activity by half.
